Measured values as given in patent US20060079534A1, “Cell division inhibitor and a production method thereof” (priority 2000, published 2006).
Converted amounts (≈) assume the structure as drawn.

Legend:
[1] = tested on: cleavage division of Hemicentrotus pulcherrimus; test: Inhibition test for cell division (cleavage division); type: in vivo; details: observed 4 hours after fertilization; * = no activity at the indicated concentration
Protocol: (§1) Physiological activity of each dehydrodiketopiperazine will be described below. Each dehydrodiketopiperazine was tested for its inhibitory activity against cleavage division of Hemicentrotus pulcherrimus, Scaphechinus mirabilis and Temnopleurus toreumaticus as a cell division inhibitory activity. The test was carried out as described in The Journal of Antibiotics, Vol. 52, p. 1017 (1999). However, stages at which the first cleavage division occurs vary among sea urchins, so that inhibition of the cleavage division was observed after 4 hours of fertilization in the tests using Hemicentrotus pulcherrimus and Scaphechinus mirabilis, and after one hour of fertilization in the test using Temnopleurus toreumaticus, respectively.

[2] = tested on: cleavage division of Scaphechinus mirabilis; test: as above; type: in vivo; details: observed 4 hours after fertilization; * = no activity at the indicated concentration
Protocol: as §1

[3] = tested on: cleavage division of Temnopleurus toreumaticus; test: as above; type: in vivo; details: observed one hour after fertilization; * = no activity at the indicated concentration
Protocol: as §1

tubulin = details: cited from earlier work
[4] = tested on: cancer cell transplanted model animal; details: cited from earlier work
tumor = details: cited from earlier work
[5] = tested on: cleavage division of Hemicentrotus pulcherrimus, Scaphechinus mirabilis and Temnopleurus toreumaticus; test: Comparison of cell division inhibitory activity across the sea urchin tests; type: in vivo, sea urchins; details: ratio of MIC values
Protocol: as §1

[6] = tested on: dehydrogenase (cell-free extract); test: Amount of dehydrogenation of each substrate by enzyme (change in absorbance at 600 nm due to coenzyme); type: biochemical, Streptomyces albulus KO23; details: relative value of change in absorbance at 600 nm, CFL set to 100; substrate 0.5 mM, 37° C.
bacteria = details: Fukushima et al. 1973; cited from earlier work
pronuclear fusion = details: Kobayashi et al. 1989; cited from earlier work
[7] = tested on: sea urchin embryo division; details: Kanzaki et al. 1999; cited from earlier work

C=CC(C)(C)c1[nH]cnc1C=C1NC(=O)C(Cc2ccccc2)NC1=O (single isomer, unassigned; (+)) [(+)-phenylahistin, 3-{[5-(1,1-dimethyl-2-propenyl)imidazole-4-yl]methylene}-6-benzylpiperazine-2,5-dione]
MIC Hemicentrotus pulcherrimus [1]: 13 µg/mL (≈ 37.1 µM)
MIC Scaphechinus mirabilis [2]: >13* μg/ml
MIC Temnopleurus toreumaticus [3]: 6.3 µg/mL (≈ 18 µM)

C=CC(C)(C)c1[nH]cnc1C=C1NC(=O)C(Cc2ccccc2)NC1=O (single isomer, unassigned; (-)) [(−)-phenylahistin, 3-{[5-(1,1-dimethyl-2-propenyl)imidazole-4-yl]methylene}-6-benzylpiperazine-2,5-dione]
inhibition of the polymerization of tubulin (tubulin): inhibits the polymerization of tubulin
antitumor effect [4]: a certain degree of antitumor activity
MIC Hemicentrotus pulcherrimus [1]: 0.39 µg/mL (≈ 1.11 µM)
MIC Scaphechinus mirabilis [2]: 1.6 µg/mL (≈ 4.57 µM)
MIC Temnopleurus toreumaticus [3]: 0.2 µg/mL (≈ 0.571 µM)
antitumor activity relative to (+)-phenylahistin (tumor; times stronger than (+)-phenylahistin, approx.): 30-100 times

O=c1[nH]/c(=C\c2c[nH]cn2)c(=O)[nH]/c1=C\c1ccccc1 [(Z,Z)-tetradehydro-CFH, Z-tetradehydrocyclophenylalanylhistidyl]
MIC Hemicentrotus pulcherrimus [1]: 0.78 µg/mL (≈ 2.78 µM)
MIC Scaphechinus mirabilis [2]: 1.6 µg/mL (≈ 5.71 µM)
MIC Temnopleurus toreumaticus [3]: 1.6 µg/mL (≈ 5.71 µM)
inhibitory activity compared with CFH [5]: ≥ 15 fold

O=C(O)CC1NC(=O)C(CC(=O)O)NC1=O (centres unmarked) [CDD]
Amount of dehydrogenation [6]: 14

O=C(O)CCC1NC(=O)C(CCC(=O)O)NC1=O (centres unmarked) [CEE]
Amount of dehydrogenation [6]: 14

O=C1N[C@@H](Cc2c[nH]cn2)C(=O)N[C@H]1Cc1ccccc1 [CFH, cyclophenylalanylhistidyl]
Amount of dehydrogenation [6]: 44
MIC Hemicentrotus pulcherrimus [1]: >25* μg/ml
MIC Scaphechinus mirabilis [2]: >25* μg/ml
MIC Temnopleurus toreumaticus [3]: >25* μg/ml

CC(C)C[C@@H]1NC(=O)[C@H](Cc2ccccc2)NC1=O [CFL]
Amount of dehydrogenation [6]: 100

CC(C)CC1NC(=O)C(Cc2ccc(O)cc2)NC1=O (centres unmarked) [CLY]
Amount of dehydrogenation [6]: 14

CSCCC1NC(=O)C(CCSC)NC1=O (centres unmarked) [CMM]
Amount of dehydrogenation [6]: 27

CC(C)/C=c1\[nH]c(=O)/c(=C/c2ccccc2)[nH]c1=O [albonoursin, 3-(Z)-benzylidene-6-(Z)isobutylidene-2,5-piperazine dione]
MIC Hemicentrotus pulcherrimus [1]: 6.3 µg/mL (≈ 24.6 µM)
MIC Scaphechinus mirabilis [2]: >13* μg/ml
MIC Temnopleurus toreumaticus [3]: >25* μg/ml
antibacterial activity (bacteria): antibacterial activity
inhibition of pronuclear fusion (pronuclear fusion): acts to inhibit the pronuclear fusion
antitumor activity (tumor; Fukushima et al. 1973): has an antitumor activity

C=CC(C)(C)c1[nH]cnc1/C=c1\[nH]c(=O)/c(=C/c2ccccc2)[nH]c1=O [dehydrophenylahistin, (Z, Z)-dehydrophenylahistin]
MIC Hemicentrotus pulcherrimus [1]: 0.00038 µg/mL (≈ 0.00109 µM)
MIC Scaphechinus mirabilis [2]: 0.0061 µg/mL (≈ 0.0175 µM)
MIC Temnopleurus toreumaticus [3]: 0.0061 µg/mL (≈ 0.0175 µM)

O=c1[nH]c(=Cc2ccccc2)c(=O)[nH]c1=Cc1ccccc1 [tetradehydrocyclo (Phe-Phe)]
sea urchin embryo division inhibitory activity [7]: exhibits sea urchin embryo division inhibitory activity
